For the assay, the target named is T1, HIV integrase (Human immunodeficiency virus type 1 group M subtype B, UniProt P12497, F1332H).
T1 construct: HIV integrase full length gene; made in house; host or cells: Escherichia coli BL21(DE3), plasmid pET21a-INH
In words: Determination of enzyme (HIV integrase) inhibitory activity. The assay is classed as biochemical. Conditions: recombinant HIV integrase (F185H), strand transfer ELISA, absorbance at 450 nm. The essentials: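 Full-length integrase with F185H, expressed in E. coli and purified, was reacted for 60 min at 37 °C with compound and biotinylated donor DNA bound to streptavidin plates. Target DNA was added for 10 min, then anti-digoxigenin-peroxidase detection at A450; IC50 from % inhibition versus enzyme-free blank.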
For orientation: ELISA stands for enzyme-linked immunosorbent assay.

pIC50: −log10 of the molar value. Counter-ions that a name gives are not always drawn.

The term pIC50 denotes −log10 of the IC50, conventionally taken in molar units.

For the molecule `O=C1c2c(O)c(=O)c(-c3nccs3)cn2CCN1Cc1ccccc1F` [Example 307, 2-(2-fluorobenzyl)-9-hydroxy-7-(thiazol-2-yl)-3,4-dihydro-2H-pyrido[1,2-a]pyrazine-1,8-dione], the pIC50 was 6.00 to 7.00.
To `O=C1c2c(O)c(=O)c(-c3nccs3)cn2CCN1Cc1cccc(F)c1` [Example 308, 2-(3-fluorobenzyl)-9-hydroxy-7-(thiazol-2-yl)-3,4-dihydro-2H-pyrido[1,2-a]pyrazine-1,8-dione] belongs 7.00 to 8.00.
In the case of `O=C1c2c(O)c(=O)c(-c3nccs3)cn2CCN1Cc1ccc(F)cc1` [Example 309, 2-(4-fluorobenzyl)-9-hydroxy-7-(thiazol-2-yl)-3,4-dihydro-2H-pyrido[1,2-a]pyrazine-1,8-dione], the pIC50 is 7.00 to 8.00.
`O=C1c2c(O)c(=O)c(-c3nccs3)cn2CCN1Cc1ccccc1Cl` [Example 310, 2-(2-chlorobenzyl)-9-hydroxy-7-(thiazol-2-yl)-3,4-dihydro-2H-pyrido[1,2-a]pyrazine-1,8-dione]: the pIC50 was 6.00 to 7.00.
Then `O=C1c2c(O)c(=O)c(-c3nccs3)cn2CCN1Cc1ccc2ccccc2c1` [Example 311, 9-hydroxy-2-(naphthalen-2-ylmethyl)-7-(thiazol-2-yl)-3,4-dihydro-2H-pyrido[1,2-a]pyrazine-1,8-dione], with > 8.00; and `O=C1c2c(O)c(=O)c(-c3nccs3)cn2CCN1CCCc1cccc(Cl)c1F` [Example 312, 2-[3-(3-chloro-2-fluorophenyl)propyl]-9-hydroxy-7-(thiazol-2-yl)-3,4-dihydro-2H-pyrido[1,2-a]pyrazine-1,8-dione], with 7.00 to 8.00.
To `O=C1c2c(O)c(=O)c(-c3nccs3)cn2CCN1CCCc1ccc(Cl)c(F)c1` [Example 313, 2-[3-(4-chloro-3-fluorophenyl)propyl]-9-hydroxy-7-(thiazol-2-yl)-3,4-dihydro-2H-pyrido[1,2-a]pyrazine-1,8-dione] belongs 7.00 to 8.00.
For `O=C1c2c(O)c(=O)c(-c3nccs3)cn2CCN1CCCc1ccc(F)cc1` [Example 314, 2-[3-(4-fluorophenyl)propyl]-9-hydroxy-7-(thiazol-2-yl)-3,4-dihydro-2H-pyrido[1,2-a]pyrazine-1,8-dione], the pIC50 is 7.00 to 8.00.
Take `O=C1c2c(O)c(=O)c(-c3nccs3)cn2CCN1CCCc1cccc(F)c1` [Example 315, 2-[3-(3-fluorophenyl)propyl]-9-hydroxy-7-(thiazol-2-yl)-3,4-dihydro-2H-pyrido[1,2-a]pyrazine-1,8-dione]: the pIC50 was 7.00 to 8.00.
Then `O=C1c2c(O)c(=O)c(-c3nccs3)cn2CCN1CCCc1ccccc1` [Example 316, 9-hydroxy-2-(3-phenylpropyl)-7-(thiazol-2-yl)-3,4-dihydro-2H-pyrido[1,2-a]pyrazine-1,8-dione hydrochloride], with 7.00 to 8.00; and `O=C1c2c(O)c(=O)c(-c3ccccn3)cn2CCN1Cc1cccc(Cl)c1F` [Example 317, 2-(3-chloro-2-fluorobenzyl)-9-hydroxy-7-(pyridin-2-yl)-3,4-dihydro-2H-pyrido[1,2-a]pyrazine-1,8-dione hydrochloride], with 7.00 to 8.00.
To `COCC(=O)Nc1cn2ccn(Cc3ccc(F)cc3)c(=O)c2c(O)c1=O` [Example 318, N-[2-(4-fluorobenzyl)-9-hydroxy-1,8-dioxo-1,8-dihydro-2H-pyrido[1,2-a]pyrazin-7-yl]-2-methoxyacetamide] belongs 7.00 to 8.00.
Consider `CC(C)S(=O)(=O)Nc1cn2ccn(Cc3ccc(F)cc3)c(=O)c2c(O)c1=O` [Example 319, N-[2-(4-fluorobenzyl)-9-hydroxy-1,8-dioxo-1,8-dihydro-2H-pyrido[1,2-a]pyrazin-7-yl]-2-propanesulfonamide], for which the pIC50 is 7.00 to 8.00.
Then `O=C(Nc1cn2ccn(Cc3ccc(F)cc3)c(=O)c2c(O)c1=O)c1cccnc1` [Example 320, N-[2-(4-fluorobenzyl)-9-hydroxy-1,8-dioxo-1,8-dihydro-2H-pyrido[1,2-a]pyrazin-7-yl]nicotinamide trifluoroacetate], with > 8.00; and `CC(C)C(=O)Nc1cn2ccn(Cc3ccc(F)cc3)c(=O)c2c(O)c1=O` [Example 321, N-[2-(4-fluorobenzyl)-9-hydroxy-1,8-dioxo-1,8-dihydro-2H-pyrido[1,2-a]pyrazin-7-yl]isobutyramide], with 7.00 to 8.00; and `COCCNC(=O)c1cn2ccn(Cc3ccc(F)cc3)c(=O)c2c(O)c1=O` [Example 322, N-(2-methoxyethyl)-2-(4-fluorobenzyl)-9-hydroxy-1,8-dioxo-1,8-dihydro-2H-pyrido[1,2-a]pyrazine-7-carboxamide], with 7.00 to 8.00.
Then `CCNC(=O)c1cn2ccn(Cc3ccc(F)cc3)c(=O)c2c(O)c1=O` [Example 323, N-ethyl-2-(4-fluorobenzyl)-9-hydroxy-1,8-dioxo-1,8-dihydro-2H-pyrido[1,2-a]pyrazine-7-carboxamide], with 7.00 to 8.00.
In the case of `CC(=O)Nc1cn2ccn(CCCc3c(F)cccc3Cl)c(=O)c2c(O)c1=O` [Example 324, N-{2-[3-(2-chloro-6-fluorophenyl)propyl]-9-hydroxy-1,8-dioxo-1,8-dihydro-2H-pyrido[1,2-a]pyrazin-7-yl]acetamide], the pIC50 was 7.00 to 8.00.
As for `CC(=O)Nc1cn2ccn(Cc3cccc(Cl)c3F)c(=O)c2c(O)c1=O` [Example 325, N-[2-(3-chloro-2-fluorobenzyl)-9-hydroxy-1,8-dioxo-1,8-dihydro-2H-pyrido[1,2-a]pyrazin-7-yl]acetamide hydrochloride], the pIC50 was 7.00 to 8.00.
Then `COC(=O)c1cc(F)ccc1CN1CCn2cc(-c3nccs3)c(=O)c(O)c2C1=O` [Example 326, methyl 5-fluoro-2-[9-hydroxy-1,8-dioxo-7-(thiazol-2-yl)-1,3,4,8-tetrahydro-pyrido[1,2-a]pyrazin-2-ylmethyl]benzoate], with 6.00 to 7.00; and `O=C1c2c(O)c(=O)c(-c3ccccn3)cn2CCN1Cc1ccc(F)c(Cl)c1` [Example 327, 2-(3-chloro-4-fluorobenzyl)-9-hydroxy-7-(pyridin-2-yl)-3,4-dihydro-2H-pyrido[1,2-a]pyrazine-1,8-dione hydrochloride], with > 8.00.
To `O=C1c2c(O)c(=O)c(-c3cccnc3)cn2CCN1Cc1cccc(Cl)c1F` [Example 328, 2-(3-chloro-2-fluorobenzyl)-9-hydroxy-7-(pyridin-3-yl)-3,4-dihydro-2H-pyrido[1,2-a]pyrazine-1,8-dione hydrochloride] belongs 7.00 to 8.00.
In the case of `O=C1c2c(O)c(=O)c(-c3ccccn3)cn2CCN1CCCc1c(F)cccc1Cl` [Example 329, 2-[3-(2-chloro-6-fluorophenyl)propyl]-9-hydroxy-7-(pyridin-2-yl)-3,4-dihydro-2H-pyrido[1,2-a]pyrazine-1,8-dione hydrochloride], the pIC50 is 7.00 to 8.00.
For the molecule `O=C1c2c(O)c(=O)c(-c3nccs3)cn2CCN1Cc1cc2ccccc2o1` [Example 330, 2-(benzofuran-2-ylmethyl)-9-hydroxy-7-(thiazol-2-yl)-3,4-dihydro-2H-pyrido[1,2-a]pyrazine-1,8-dione], the pIC50 was > 8.00.
Then `O=C(NC(Cc1ccccc1)c1ccccc1)c1cn2c(c(O)c1=O)C(=O)N(Cc1cccc(Cl)c1)CC2` (stereo not drawn) [Example 331, N-(1,2-diphenylethyl)-2-(3-chlorobenzyl)-9-hydroxy-1,8-dioxo-1,3,4,8-tetrahydro-2H-pyrido[1,2-a]pyrazine-7-carboxamide], with 7.00 to 8.00.
As to `CC(=O)Nc1cn2c(c(O)c1=O)C(=O)N(Cc1cccc(Cl)c1F)CC2` [Example 332, N-[2-(3-chloro-2-fluorobenzyl)-9-hydroxy-1,8-dioxo-1,3,4,8-tetrahydro-2H-pyrido[1,2-a]pyrazin-7-yl]acetamide], the pIC50 was 7.00 to 8.00.
To `O=C1c2c(O)c(=O)c(-c3nccs3)cn2CCN1CCCc1ccccc1F` [Example 333, 2-[3-(2-fluorophenyl)propyl)-9-hydroxy-7-(thiazol-2-yl)-3,4-dihydro-2H-pyrido[1,2-a]pyrazine-1,8-dione] belongs 7.00 to 8.00; to `O=C(NC(CCc1ccccc1)c1ccccc1)c1cn2c(c(O)c1=O)C(=O)N(Cc1cccc(Cl)c1)CC2` (stereo not drawn) [Example 334, N-(1,3-diphenylpropyl)-2-(3-chlorobenzyl)-9-hydroxy-1,8-dioxo-1,3,4,8-tetrahydro-2H-pyrido[1,2-a]pyrazine-7-carboxamide], 7.00 to 8.00.
Regarding `CNC(=O)c1cc(F)ccc1CCCN1CCn2cc(-c3nccs3)c(=O)c(O)c2C1=O` [Example 335, 5-fluoro-2-{3-[9-hydroxy-1,8-dioxo-7-(thiazol-2-yl)-1,3,4,8-tetrahydro-pyrido[1,2-a]pyrazin-2-yl]propyl)-N-methylbenzamide], the pIC50 was 7.00 to 8.00.
As to `CC(C)(C)C(=O)c1cn2c(c(O)c1=O)C(=O)N(CCCc1c(F)cccc1Cl)CC2` [Example 336, 2-[3-(2-chloro-6-fluorophenyl)propyl]-7-(2,2-dimethylpropionyl)-9-hydroxy-3,4-dihydro-2H-pyrido[1,2-a]pyrazine-1,8-dione], the pIC50 was > 8.00.
To `CC(C)C(=O)c1cn2c(c(O)c1=O)C(=O)N(Cc1cccc(Cl)c1)CC2` [Example 337, 2-(3-chlorobenzyl)-9-hydroxy-7-isobutyryl-3,4-dihydro-2H-pyrido[1,2-a]pyrazine-1,8-dione] belongs > 8.00; to `O=C1c2c(O)c(=O)c(-c3nccs3)cn2CCN1CCCCc1ccccc1` [Example 338, 9-hydroxy-2-(4-phenylbutyl)-7-(thiazol-2-yl)-3,4-dihydro-2H-pyrido[1,2-a]pyrazine-1,8-dione hydrochloride], 7.00 to 8.00.
Then `CCCCCN1CCn2cc(-c3nccs3)c(=O)c(O)c2C1=O` [Example 339, 9-hydroxy-2-pentyl-7-(thiazol-2-yl)-3,4-dihydro-2H-pyrido[1,2-a]pyrazine-1,8-dione hydrochloride], with 6.00 to 7.00.

The record behind these values is US7211572B2 (Japan Tobacco Inc., priority 2003, dated 2007).
